# Reference: publication PMC13366236 (Acta Pharmaceutica Sinica. B, 2025)
# Target: mTOR (Homo sapiens, UniProt P42345)
# Test: mTOR kinase inhibition, Lance Ultra assay
# Assay type: biochemical
# Conditions: mTOR IC50, text and Fig. 3A
row,IC50 [µM],SMILES
1,1.5,Nc1ccccc1/N=c1\cc(-c2ccc3c(c2)OCO3)oc2ccccc12 [Compound 4a]

# Same assay, conditions: mTOR, IC50, mean ± SD of triplicate measurements
row,SMILES,IC50 [µM]
1,"NCCC(=O)Nc1cccc(/N=c2\cc(-c3ccc4c(c3)OCO4)oc3ccccc23)c1 [Compound 5ab, (E)-3-amino-N-(3-((2-(benzo[d][1,3]dioxol-5-yl)-4H-chromen-4-ylidene)amino)phenyl)propanamide]",> 10
2,"NCCC(=O)Nc1ccc(/N=c2\cc(-c3ccc4c(c3)OCO4)oc3ccccc23)cc1 [Compound 5ac, (E)-3-amino-N-(4-((2-(benzo[d][1,3]dioxol-5-yl)-4H-chromen-4-ylidene)amino)phenyl)propanamide]",> 10
3,"N[C@@H](CO)C(=O)Nc1ccccc1/N=c1\cc(-c2ccc3c(c2)OCO3)oc2ccccc12 [Compound 5c, (S,E)-2-amino-N-(2-((2-(benzo[d][1,3]dioxol-5-yl)-4H-chromen-4-ylidene)amino)phenyl)-3-hydroxypropanamide]",> 10
4,"COCCC(=O)Nc1ccccc1/N=c1\cc(-c2ccc3c(c2)OCO3)oc2ccccc12 [Compound 5d, (E)-N-(2-((2-(benzo[d][1,3]dioxol-5-yl)-4H-chromen-4-ylidene)amino)phenyl)-3-methoxypropanamide]",> 10
5,"NCCCC(=O)Nc1ccccc1/N=c1\cc(-c2ccc3c(c2)OCO3)oc2ccccc12 [Compound 5f, (E)-4-amino-N-(2-((2-(benzo[d][1,3]dioxol-5-yl)-4H-chromen-4-ylidene)amino)phenyl)butanamide]",8.19 ± 1.85
6,"NCCCCC(=O)Nc1ccccc1/N=c1\cc(-c2ccc3c(c2)OCO3)oc2ccccc12 [Compound 5g, (E)-5-amino-N-(2-((2-(benzo[d][1,3]dioxol-5-yl)-4H-chromen-4-ylidene)amino)phenyl)pentanamide]",> 10
7,"O=C(Nc1ccccc1/N=c1\cc(-c2ccc3c(c2)OCO3)oc2ccccc12)N1CCOCC1 [Compound 5h, (E)-N-(2-((2-(benzo[d][1,3]dioxol-5-yl)-4H-chromen-4-ylidene)amino)phenyl)morpholine-4-carboxamide]",> 10
8,"CC(C)(C)[C@H](N)C(=O)Nc1ccccc1/N=c1\cc(-c2ccc3c(c2)OCO3)oc2ccccc12 [Compound 5j, (S,E)-2-amino-N-(2-((2-(benzo[d][1,3]dioxol-5-yl)-4H-chromen-4-ylidene)amino)phenyl)-3,3-dimethylbutanamide]",> 10

# Stronger by IC50, values ahead:
row,IC50 [µM],SMILES
1,7.47 ± 0.139,"O=C(Nc1ccccc1/N=c1\cc(-c2ccc3c(c2)OCO3)oc2ccccc12)N1CCNCC1 [Compound 5i, (E)-N-(2-((2-(benzo[d][1,3]dioxol-5-yl)-4H-chromen-4-ylidene)amino)phenyl)piperazine-1-carboxamide]"
2,6.16 ± 1.11,"NCC(=O)Nc1ccccc1/N=c1\cc(-c2ccc3c(c2)OCO3)oc2c(N)cccc12 [Compound 5m, (E)-2-amino-N-(2-((2-(benzo[d][1,3]dioxol-5-yl)-8-amino-4H-chromen-4-ylidene)amino)phenyl)acetamide]"
3,3.19 ± 0.194,"C[C@H](N)C(=O)Nc1ccccc1/N=c1\cc(-c2ccc3c(c2)OCO3)oc2ccccc12 [Compound 5b, (S,E)-2-amino-N-(2-((2-(benzo[d][1,3]dioxol-5-yl)-4H-chromen-4-ylidene)amino)phenyl)propanamide]"
4,1.54 ± 0.0211,Nc1ccccc1/N=c1\cc(-c2ccc3c(c2)OCO3)oc2ccccc12 [Compound 4a]
5,1.52 ± 0.121,"NCC(=O)Nc1ccccc1/N=c1\cc(-c2ccc3c(c2)OCCO3)oc2ccccc12 [Compound 5p, (E)-2-amino-N-(2-((2-(2,3-dihydrobenzo[b][1,4]dioxin-6-yl)-4H-chromen-4-ylidene)amino)phenyl)acetamide]"
6,0.719 ± 0.0074,"NCC(=O)Nc1ccccc1/N=c1\cc(-c2ccc3c(c2)OCO3)oc2ccccc12 [Compound 5a, (E)-2-amino-N-(2-((2-(benzo[d][1,3]dioxol-5-yl)-4H-chromen-4-ylidene)amino)phenyl)acetamide]"
7,0.317 ± 0.0191,"NCCC(=O)Nc1ccccc1/N=c1\cc(-c2ccc3c(c2)OCO3)oc2ccccc12 [Compound 5e, (E)-3-amino-N-(2-((2-(benzo[d][1,3]dioxol-5-yl)-4H-chromen-4-ylidene)amino)phenyl)propanamide]"
